{"source": "paper PMC5701947", "about": "“β1-Adrenergic Receptor Contains Multiple IA^k and IE^k Binding Epitopes That Induce T Cell Responses with Varying Degrees of Autoimmune Myocarditis in A/J Mice” (Frontiers in Immunology, 2017)"}
{"test_system": "T cells (lymph node cells/splenocytes from immunized animals)", "test": "T cell proliferation assay ([3H]-thymidine)", "type": "cell-based, A/J mice", "details": "10 μg/ml; animals immunized with pool V; fold vs medium control", "experimental": "(§1) At termination, lymph nodes (maxillary, mandibular, axillary, inguinal, and popliteal) and spleens were harvested from immunized animals to prepare single cell suspensions. Similarly, splenocytes were prepared from naive animals. After lysing the erythrocytes and washing, cell pellets were suspended in RPMI medium containing 10% fetal bovine serum, 1 mM sodium pyruvate, 4 mM L-glutamine, 1 × each of non-essential amino acids and vitamin mixture, and 100 U/ml penicillin–streptomycin (Lonza, Walkersville, MD, USA; hereafter called growth medium). In some experiments, CD4 T cells and CD8 T cells were enriched to a purity of ~95% by negative selection based on magnetic separation using IMAG (BD Biosciences, San Jose, CA, USA) ([31]). To stimulate CD4 and CD8 T cells, syngeneic naive irradiated splenocytes loaded with peptides were used as antigen-presenting cells at a ratio of 1:1. Cells were stimulated at a density of ~5 × 10^6 cells/ml in triplicates with or without the immunizing peptides (0–100 µg/ml) in growth medium. RNase 43–56 or HEL 46–61 were used as irrelevant controls. After 2 days, cells were pulsed with tritiated ^3[H]-thymidine (1 μCi/well; MP Biomedicals, Santa Ana, CA, USA), and 16 h later, proliferative responses were measured as counts per minute (cpm) using a Wallac liquid scintillation counter (Perkin Elmer, Waltham, MA, USA) ([26], [28], [30]).", "units": {"T cell responses": "fold"}}
{"substance": "β1AR 231-250: 20-mer of mouse β1AR peptide library (VSFYVPLCIMAFVYLRVFRE; UniProt P34971 231-250, looked up, fragment)", "T cell responses": 1.42}
{"substance": "β1AR 241-260: 20-mer of mouse β1AR peptide library (AFVYLRVFREAQKQVKKIDS; UniProt P34971 241-260, looked up, fragment)", "T cell responses": 1.52}
{"substance": "β1AR 251-270: 20-mer of mouse β1AR peptide library (AQKQVKKIDSCERRFLGGPA; UniProt P34971 251-270, looked up, fragment)", "T cell responses": 1.12}
{"substance": "β1AR 261-280: 20-mer of mouse β1AR peptide library (CERRFLGGPARPPSPEPSPS; UniProt P34971 261-280, looked up, fragment)", "T cell responses": 0.86}
{"test_system": "T cells (lymph node cells/splenocytes from immunized animals)", "test": "T cell proliferation assay ([3H]-thymidine)", "type": "cell-based, A/J mice", "details": "10 μg/ml; animals immunized with pool VI; fold vs medium control", "experimental": "as §1", "units": {"T cell responses": "fold"}}
{"substance": "β1AR 271-290: 20-mer of mouse β1AR peptide library (RPPSPEPSPSPGPPRPADSL; UniProt P34971 271-290, looked up, fragment)", "T cell responses": 1.05}
{"substance": "β1AR 281-300: 20-mer of mouse β1AR peptide library (PGPPRPADSLANGRSSKRRP; UniProt P34971 281-300, looked up, fragment)", "T cell responses": 0.92}
{"substance": "β1AR 291-310: 20-mer of mouse β1AR peptide library (ANGRSSKRRPSRLVALREQK; UniProt P34971 291-310, looked up, fragment)", "T cell responses": 0.87}
{"substance": "β1AR 301-320: 20-mer of mouse β1AR peptide library (SRLVALREQKALKTLGIIMG; UniProt P34971 301-320, looked up, fragment)", "T cell responses": 2.03}
{"substance": "β1AR 311-330: 20-mer of mouse β1AR peptide library (ALKTLGIIMGVFTLCWLPFF; UniProt P34971 311-330, looked up, fragment)", "T cell responses": 1.30}
{"test_system": "T cells (lymph node cells/splenocytes from immunized animals)", "test": "T cell proliferation assay ([3H]-thymidine)", "type": "cell-based, A/J mice", "details": "10 μg/ml; animals immunized with pool VII; fold vs medium control", "experimental": "as §1", "units": {"T cell responses": "fold"}}
{"substance": "β1AR 321-340: 20-mer of mouse β1AR peptide library (VFTLCWLPFFLANVVKAFHR; UniProt P34971 321-340, looked up, fragment)", "T cell responses": 3.23}
{"substance": "β1AR 331-350: 20-mer of mouse β1AR peptide library (LANVVKAFHRDLVPDRLFVF; UniProt P34971 331-350, looked up, fragment)", "T cell responses": 1.05}
{"substance": "β1AR 341-360: 20-mer of mouse β1AR peptide library (DLVPDRLFVFFNWLGYANSA; UniProt P34971 341-360, looked up, fragment)", "T cell responses": 1.02}
{"substance": "β1AR 351-370: 20-mer of mouse β1AR peptide library (FNWLGYANSAFNPIIYCRSP; UniProt P34971 351-370, looked up, fragment)", "T cell responses": 1.86}
{"substance": "β1AR 361-380: 20-mer of mouse β1AR peptide library (FNPIIYCRSPDFRKAFQRLL; UniProt P34971 361-380, looked up, fragment)", "T cell responses": 2.06}
{"test_system": "T cells (lymph node cells/splenocytes from immunized animals)", "test": "T cell proliferation assay ([3H]-thymidine)", "type": "cell-based, A/J mice", "details": "10 μg/ml; animals immunized with pool VIII; fold vs medium control", "experimental": "as §1", "units": {"T cell responses": "fold"}}
{"substance": "β1AR 371-390: 20-mer of mouse β1AR peptide library (DFRKAFQRLLCCARRAACRR; UniProt P34971 371-390, looked up, fragment)", "T cell responses": 1.14}
{"substance": "β1AR 401-420: 20-mer of mouse β1AR peptide library (SGCLARAGPPPSPGAPSDDD; UniProt P34971 401-420, looked up, fragment)", "T cell responses": 0.90}
{"substance": "β1AR 411-430: 20-mer of mouse β1AR peptide library (PSPGAPSDDDDDDAGTTPPA; UniProt P34971 411-430, looked up, fragment)", "T cell responses": 0.93}
{"test_system": "T cells (lymph node cells/splenocytes from immunized animals)", "test": "T cell proliferation assay ([3H]-thymidine)", "type": "cell-based, A/J mice", "details": "100 μg/ml; animals immunized with pool V; fold vs medium control", "experimental": "as §1", "units": {"T cell responses": "fold"}}
{"substance": "β1AR 231-250: 20-mer of mouse β1AR peptide library (VSFYVPLCIMAFVYLRVFRE; UniProt P34971 231-250, looked up, fragment)", "T cell responses": 1.85}
{"substance": "β1AR 241-260: 20-mer of mouse β1AR peptide library (AFVYLRVFREAQKQVKKIDS; UniProt P34971 241-260, looked up, fragment)", "T cell responses": 2.02}
{"substance": "β1AR 251-270: 20-mer of mouse β1AR peptide library (AQKQVKKIDSCERRFLGGPA; UniProt P34971 251-270, looked up, fragment)", "T cell responses": 1.81}
{"substance": "β1AR 261-280: 20-mer of mouse β1AR peptide library (CERRFLGGPARPPSPEPSPS; UniProt P34971 261-280, looked up, fragment)", "T cell responses": 1.32}
{"test_system": "T cells (lymph node cells/splenocytes from immunized animals)", "test": "T cell proliferation assay ([3H]-thymidine)", "type": "cell-based, A/J mice", "details": "100 μg/ml; animals immunized with pool VI; fold vs medium control", "experimental": "as §1", "units": {"T cell responses": "fold"}}
{"substance": "β1AR 271-290: 20-mer of mouse β1AR peptide library (RPPSPEPSPSPGPPRPADSL; UniProt P34971 271-290, looked up, fragment)", "T cell responses": 1.13}
{"substance": "β1AR 281-300: 20-mer of mouse β1AR peptide library (PGPPRPADSLANGRSSKRRP; UniProt P34971 281-300, looked up, fragment)", "T cell responses": 0.93}
{"substance": "β1AR 291-310: 20-mer of mouse β1AR peptide library (ANGRSSKRRPSRLVALREQK; UniProt P34971 291-310, looked up, fragment)", "T cell responses": 1.66}
{"substance": "β1AR 301-320: 20-mer of mouse β1AR peptide library (SRLVALREQKALKTLGIIMG; UniProt P34971 301-320, looked up, fragment)", "T cell responses": 1.93}
{"substance": "β1AR 311-330: 20-mer of mouse β1AR peptide library (ALKTLGIIMGVFTLCWLPFF; UniProt P34971 311-330, looked up, fragment)", "T cell responses": 1.21}
{"test_system": "T cells (lymph node cells/splenocytes from immunized animals)", "test": "T cell proliferation assay ([3H]-thymidine)", "type": "cell-based, A/J mice", "details": "100 μg/ml; animals immunized with pool VII; fold vs medium control", "experimental": "as §1", "units": {"T cell responses": "fold"}}
{"substance": "β1AR 321-340: 20-mer of mouse β1AR peptide library (VFTLCWLPFFLANVVKAFHR; UniProt P34971 321-340, looked up, fragment)", "T cell responses": 2.21}
{"substance": "β1AR 331-350: 20-mer of mouse β1AR peptide library (LANVVKAFHRDLVPDRLFVF; UniProt P34971 331-350, looked up, fragment)", "T cell responses": 1.49}
{"substance": "β1AR 341-360: 20-mer of mouse β1AR peptide library (DLVPDRLFVFFNWLGYANSA; UniProt P34971 341-360, looked up, fragment)", "T cell responses": 1.47}
{"substance": "β1AR 351-370: 20-mer of mouse β1AR peptide library (FNWLGYANSAFNPIIYCRSP; UniProt P34971 351-370, looked up, fragment)", "T cell responses": 1.82}
{"substance": "β1AR 361-380: 20-mer of mouse β1AR peptide library (FNPIIYCRSPDFRKAFQRLL; UniProt P34971 361-380, looked up, fragment)", "T cell responses": 1.82}
{"test_system": "T cells (lymph node cells/splenocytes from immunized animals)", "test": "T cell proliferation assay ([3H]-thymidine)", "type": "cell-based, A/J mice", "details": "100 μg/ml; animals immunized with pool VIII; fold vs medium control", "experimental": "as §1", "units": {"T cell responses": "fold"}}
{"substance": "β1AR 371-390: 20-mer of mouse β1AR peptide library (DFRKAFQRLLCCARRAACRR; UniProt P34971 371-390, looked up, fragment)", "T cell responses": 0.60}
{"substance": "β1AR 401-420: 20-mer of mouse β1AR peptide library (SGCLARAGPPPSPGAPSDDD; UniProt P34971 401-420, looked up, fragment)", "T cell responses": 0.88}
{"substance": "β1AR 411-430: 20-mer of mouse β1AR peptide library (PSPGAPSDDDDDDAGTTPPA; UniProt P34971 411-430, looked up, fragment)", "T cell responses": 0.94}
